In brackets after ≈: the same amount, converted by molar mass.
Experiments:
Assay type in all cases: functional
[1] = tested on: Bacillus anthracis; test: Growth rate constant of spore-phase cells going to vegetative phase in toxin and capsule gene-deficient Bacillus anthracis Sterne in hollow-fiber pharmacodynamic infection model at 50 mg, qd by Bayesian method
[2] = tested on: Bacillus anthracis; test: Growth rate constant for compound-sensitive toxin and capsule gene-deficient Bacillus anthracis Sterne in hollow-fiber pharmacodynamic infection model at 100 mg, qd by Bayesian method
[3] = tested on: Bacillus anthracis; test: Total sensitive organism counts of toxin and capsule gene-deficient Bacillus anthracis Sterne in hollow-fiber pharmacodynamic infection model administered for every 24 hrs
[4] = tested on: Bacillus anthracis; test: Total sensitive organism counts of toxin and capsule gene-deficient Bacillus anthracis Sterne in hollow-fiber pharmacodynamic infection model at 250 mg administered as continuous infusion by Bayesian method
[5] = tested on: Bacillus anthracis; test: Kill rate constant for compound-sensitive toxin and capsule gene-deficient Bacillus anthracis Sterne in hollow-fiber pharmacodynamic infection model at 100 mg, qd by Bayesian method
[6] = tested on: Bacillus anthracis; test: Hill constant for compound-sensitive toxin and capsule gene-deficient Bacillus anthracis Sterne in hollow-fiber pharmacodynamic infection model at 200 mg administered as continuous infusion by Bayesian method
[7] = tested on: Bacillus anthracis; test: Growth rate constant of spore-phase cells going to vegetative phase in toxin and capsule gene-deficient Bacillus anthracis Sterne in hollow-fiber pharmacodynamic infection model at 200 mg, qd by Bayesian method
[8] = tested on: Bacillus anthracis; test: Kill rate constant for compound-sensitive toxin and capsule gene-deficient Bacillus anthracis Sterne in hollow-fiber pharmacodynamic infection model at 100 mg administered as continuous infusion by Bayesian method
[9] = tested on: Bacillus anthracis; test: Total spore counts of toxin and capsule gene-deficient Bacillus anthracis Sterne in hollow-fiber pharmacodynamic infection model at 100 mg administered as continuous infusion by Bayesian method
[10] = tested on: Bacillus anthracis; test: Kill rate constant for compound-sensitive toxin and capsule gene-deficient Bacillus anthracis Sterne in hollow-fiber pharmacodynamic infection model administered for every 24 hrs
[11] = tested on: Bacillus anthracis; test: Growth rate constant of spore-phase cells going to vegetative phase in toxin and capsule gene-deficient Bacillus anthracis Sterne in hollow-fiber pharmacodynamic infection model at 150 mg administered as continuous infusion by Bayesian method
[12] = tested on: Bacillus anthracis; test: Growth rate constant for compound-sensitive toxin and capsule gene-deficient Bacillus anthracis Sterne in hollow-fiber pharmacodynamic infection model at 150 mg administered as continuous infusion by Bayesian method
[13] = tested on: Bacillus anthracis; test: Kill rate constant for compound-sensitive toxin and capsule gene-deficient Bacillus anthracis Sterne in hollow-fiber pharmacodynamic infection model at 200 mg, qd by Bayesian method
[14] = tested on: Bacillus anthracis; test: Growth rate constant of spore-phase cells going to vegetative phase in toxin and capsule gene-deficient Bacillus anthracis Sterne in hollow-fiber pharmacodynamic infection model at 250 mg administered as continuous infusion by Bayesian method
[15] = tested on: Bacillus anthracis; test: Growth rate constant of spore-phase cells going to vegetative phase in toxin and capsule gene-deficient Bacillus anthracis Sterne in hollow-fiber pharmacodynamic infection model administered for every 24 hrs
[16] = tested on: Bacillus anthracis; test: Growth rate constant for compound-sensitive toxin and capsule gene-deficient Bacillus anthracis Sterne in hollow-fiber pharmacodynamic infection model at 200 mg administered as continuous infusion by Bayesian method
[17] = tested on: Bacillus anthracis; test: Total spore counts of toxin and capsule gene-deficient Bacillus anthracis Sterne in hollow-fiber pharmacodynamic infection model at 100 mg, qd by Bayesian method
[18] = tested on: Bacillus anthracis; test: Hill constant for compound-sensitive toxin and capsule gene-deficient Bacillus anthracis Sterne in hollow-fiber pharmacodynamic infection model at 250 mg, qd by Bayesian method
[19] = tested on: Bacillus anthracis; test: Total sensitive organism counts of toxin and capsule gene-deficient Bacillus anthracis Sterne in hollow-fiber pharmacodynamic infection model at 200 mg administered as continuous infusion by Bayesian method
[20] = tested on: Bacillus anthracis; test: Growth rate constant of spore-phase cells going to vegetative phase in toxin and capsule gene-deficient Bacillus anthracis Sterne in hollow-fiber pharmacodynamic infection model at 100 mg administered as continuous infusion by Bayesian method
[21] = tested on: Bacillus anthracis; test: Growth rate constant of vegetative-phase cells going to spore phase in toxin and capsule gene-deficient Bacillus anthracis Sterne in hollow-fiber pharmacodynamic infection model administered as continuous infusion
[22] = tested on: Bacillus anthracis; test: Growth rate constant of vegetative-phase cells going to spore phase in toxin and capsule gene-deficient Bacillus anthracis Sterne in hollow-fiber pharmacodynamic infection model at 150 mg administered as continuous infusion by Bayesian method
[23] = tested on: Bacillus anthracis; test: Total sensitive organism counts of toxin and capsule gene-deficient Bacillus anthracis Sterne in hollow-fiber pharmacodynamic infection model administered as continuous infusion
[24] = tested on: Bacillus anthracis; test: Hill constant for compound-sensitive toxin and capsule gene-deficient Bacillus anthracis Sterne in hollow-fiber pharmacodynamic infection model at 100 mg administered as continuous infusion by Bayesian method
[25] = tested on: Bacillus anthracis; test: Growth rate constant of spore-phase cells going to vegetative phase in toxin and capsule gene-deficient Bacillus anthracis Sterne in hollow-fiber pharmacodynamic infection model at 200 mg administered as continuous infusion by Bayesian method
[26] = tested on: Bacillus anthracis; test: Hill constant for compound-sensitive toxin and capsule gene-deficient Bacillus anthracis Sterne in hollow-fiber pharmacodynamic infection model administered for every 24 hrs
[27] = tested on: Bacillus anthracis; test: Total spore counts of toxin and capsule gene-deficient Bacillus anthracis Sterne in hollow-fiber pharmacodynamic infection model administered as continuous infusion
[28] = tested on: Bacillus anthracis; test: Hill constant for compound-sensitive toxin and capsule gene-deficient Bacillus anthracis Sterne in hollow-fiber pharmacodynamic infection model at 100 mg, qd by Bayesian method
[29] = tested on: Bacillus anthracis; test: Growth rate constant of spore-phase cells going to vegetative phase in toxin and capsule gene-deficient Bacillus anthracis Sterne in hollow-fiber pharmacodynamic infection model at 100 mg, qd by Bayesian method
[30] = tested on: Bacillus anthracis; test: Hill constant for compound-sensitive toxin and capsule gene-deficient Bacillus anthracis Sterne in hollow-fiber pharmacodynamic infection model at 250 mg administered as continuous infusion by Bayesian method
[31] = tested on: Bacillus anthracis; test: Antimicrobial activity against toxin and capsule gene-deficient Bacillus anthracis Sterne after 24 hrs by macrobroth dilution method
[32] = tested on: Bacillus anthracis; test: Total spore counts of toxin and capsule gene-deficient Bacillus anthracis Sterne in hollow-fiber pharmacodynamic infection model at 150 mg, qd by Bayesian method
[33] = tested on: Bacillus anthracis; test: Growth rate constant of vegetative-phase cells going to spore phase in toxin and capsule gene-deficient Bacillus anthracis Sterne in hollow-fiber pharmacodynamic infection model at 200 mg administered as continuous infusion by Bayesian method
[34] = tested on: Bacillus anthracis; test: Growth rate constant for compound-sensitive toxin and capsule gene-deficient Bacillus anthracis Sterne in hollow-fiber pharmacodynamic infection model at 50 mg, qd by Bayesian method
[35] = tested on: Bacillus anthracis; test: Growth rate constant for compound-sensitive toxin and capsule gene-deficient Bacillus anthracis Sterne in hollow-fiber pharmacodynamic infection model at 250 mg administered as continuous infusion by Bayesian method
[36] = tested on: Bacillus anthracis; test: Growth rate constant of vegetative-phase cells going to spore phase in toxin and capsule gene-deficient Bacillus anthracis Sterne in hollow-fiber pharmacodynamic infection model at 50 mg, qd by Bayesian method
[37] = tested on: Bacillus anthracis; test: Kill rate constant for compound-sensitive toxin and capsule gene-deficient Bacillus anthracis Sterne in hollow-fiber pharmacodynamic infection model at 150 mg, qd by Bayesian method
[38] = tested on: Bacillus anthracis; test: Growth rate constant for compound-sensitive toxin and capsule gene-deficient Bacillus anthracis Sterne in hollow-fiber pharmacodynamic infection model at 200 mg, qd by Bayesian method
[39] = tested on: Bacillus anthracis; test: Kill rate constant for compound-sensitive toxin and capsule gene-deficient Bacillus anthracis Sterne in hollow-fiber pharmacodynamic infection model administered as continuous infusion

SMILES: COc1c(N2C[C@@H]3CCCN[C@@H]3C2)c(F)cc2c(=O)c(C(=O)O)cn(C3CC3)c12 [MOXIFLOXACIN]
- Activity [1]: 2.91 h⁻¹
- Activity [2]: 6.57 h⁻¹
- CFU/ml [3]: 41200000
- CFU/ml [4]: 21600000
- Activity [5]: 7.48 h⁻¹
- Activity [6]: 30 h⁻¹
- Activity [7]: 1.01 h⁻¹
- Activity [8]: 8.28 h⁻¹
- CFU/ml [9]: 1860000
- Activity [10]: 8.24 h⁻¹
- Activity [11]: 9.06 h⁻¹
- Activity [12]: 8.25 h⁻¹
- Activity [13]: 4.29 h⁻¹
- Activity [14]: 7.23 h⁻¹
- Activity [15]: 7.31 h⁻¹
- Activity [16]: 8.25 h⁻¹
- CFU/ml [17]: 1900000
- Activity [18]: 1 h⁻¹
- CFU/ml [19]: 20600000
- Activity [20]: 10.1 h⁻¹
- Activity [21]: 1.2 h⁻¹
- Activity [22]: 4.94 h⁻¹
- CFU/ml [23]: 38500000
- Activity [24]: 20.9 h⁻¹
- Activity [25]: 6.65 h⁻¹
- Activity [26]: 29.8 h⁻¹
- CFU/ml [27]: 1880000
- Activity [28]: 30 h⁻¹
- Activity [29]: 25.9 h⁻¹
- Activity [30]: 30 h⁻¹
- MIC [31]: 0.06 µg/mL (≈ 0.149 µM)
- CFU/ml [32]: 1890000
- Activity [33]: 5.3 h⁻¹
- Activity [34]: 5.14 h⁻¹
- Activity [35]: 8.25 h⁻¹
- Activity [36]: 0.0657 h⁻¹
- Activity [37]: 6.58 h⁻¹
- Activity [38]: 1.81 h⁻¹
- Activity [39]: 6.41 h⁻¹
